# Values quoted from earlier work, collected in patent publication US20170046504A1, “SYSTEM FOR DETERMINING A SUITABILITY OF AN ACTIVE INGREDIENT TO BE APPLIED TRANSDERMALLY OR TRANSMUCOSALLY AND CORRESPONDING METHOD” (LTS Lohmann Therapie-Systeme AG, priority 2014, published 2017).
# Tests used:
# [1] = assumed
# [2] = in vivo
compound,measurement,setting,value
CN1CCCC1c1cccnc1 (centres unmarked) [nicotine],efficiency for oral administration,[1],20-45%
same,half-life period,[2],1 to 6 h
